Experimental data published in article PMC9454848, “BMS-986158, a Small Molecule Inhibitor of the Bromodomain and Extraterminal Domain Proteins, in Patients with Selected Advanced Solid Tumors: Results from a Phase 1/2a Trial” (Cancers, 2022).
“And” between values parts separate entries of the source, which are not always exact repeats. Equal entries are not always repeated. Marks after values point to notes of the source that are not given here.

System: patients with advanced solid tumors
Experiment: Treatment-related adverse events and dose-limiting toxicities, phase 1/2a trial CA011-001
Format: in vivo
Method: CA011-001 was an open-label study of BMS-986158 monotherapy. Part 1 of the study included a dose-escalation segment and Part 2 was a dose-expansion phase. In Part 1, escalation occurred with an initial dose of BMS-986158 and increased in prespecified increments above the previous dose level until the first occurrence of any protocol-defined dose-limiting toxicity (DLT). Overall, 3 dosing schedules were evaluated to test safety and efficacy (Supplemental Figure S1). Each patient on schedules A, B, and C was administered a single oral dose of BMS-986158 on cycle 1 day 1 (C1D1), and no additional doses were administered until cycle 2 day 1 (C2D1; ≈7 days after C1D1). Beginning on C2D1 and for each subsequent cycle, patients received treatment according to the following schedules. On schedule A, BMS-986158 was administered once daily (QD) for 5 days on and 2 days off with 0.75-, 1.25-, 2.0-, 3.0-, and 4.5-mg escalating doses. On schedule B, patients received BMS-986158 QD for 14 days on and 7 days off with 2.0- and 3.0-mg doses. On schedule C, BMS-986158 QD was given for 7 days on and 14 days off with 2.0-, 3.0-, and 4.5-mg doses. Dose escalation was guided by a modified toxicity probability interval (mTPI) design. In the mTPI design, 3 to 4 patients would be enrolled at each dose level; if a DLT was observed, an additional 3 to 4 patients would be evaluated at the same dose level, up to a total of 13 patients. If no DLTs occurred, 3 to 4 patients would be enrolled at the next dose level. The target DLT rate was 27% to determine the maximum tolerated dose (MTD). For Part 2 of this trial (the dose-expansion phase), schedule A dosing was selected based on safety, pharmacodynamics, and PK data collected in Part 1. The dosing regimen for Part 2 was 4.5 mg for 2 weeks (10 doses) followed by 3.75 mg for the remainder of treatment. However, because study CA011-001 was terminated early with 1 patient enrolled in Part 2, we have grouped this patient with the schedule A, 4.5-mg cohort in Part 1 for the remainder of this report.
Safety was assessed as adverse events (AEs) coded by the Medical Dictionary for Regulatory Activities version 24.0 and the National Cancer Institute’s Common Terminology Criteria for Adverse Events version 4.03. In addition, AEs were classified by whether they were considered possibly or probably treatment related (TRAEs) by investigator assessment, qualified as a serious AE, or led to interruption or discontinuation of study therapy.
All treated patients who received ≥1 dose of BMS-986158 were evaluated in the safety population. […] All treated patients with available and sufficient serum or plasma samples for the corresponding analytes were included in the PK analyses. […] ECG parameters were evaluated in a categorical analysis, and linear mixed-effects regression modeling was used to describe the quantitative relationship between ΔQTcF and time-matched serum concentrations of BMS-986158 or its metabolite at a single dose.
Descriptive summary statistics, including means and 95% CIs, were calculated using the Clopper-Pearson method for ORR and Kaplan–Meier method for PFS and OS. During dose escalation, an mTPI design targeted a 27% DLT rate to guide escalation decisions and the MTD selection. In the dose-escalation segment, the target enrollment was up to 30 patients per schedule and 3–13 DLT-evaluable patients at a dose level, with an aim to determine the MTD. The totality of the data, including PK, pharmacodynamics, and patient overall safety, including at lower dose levels, was also used to select the RP2D.

[1] = Schedule A (5 days on, 2 days off), n = 46
[2] = Schedule B (14 days on, 7 days off), n = 8
[3] = Schedule C (7 days on, 14 days off), n = 29

Cc1nnn(C)c1-c1cnc2c3ccc(C(C)(C)O)cc3n([C@H](c3ccccc3)C3CCOCC3)c2c1 [BMS-986158]
Treatment discontinuation due to a TRAE (grade 3 myocardial infarction) (1 patient, schedule A group at the 4.5-mg dose, of all patients): 1.2% | Incidence of TRAEs (Schedule A (5 days on, 2 days off)): 72% and 71.7% | Anemia (TRAE), any grade [1]: 6 (13.0) n (%) | Anemia (TRAE), grade ≥ 3 [1]: 2 (4.3) n (%) | Decreased appetite (TRAE), any grade [1]: 5 (10.9) n (%) | Decreased appetite (TRAE), grade ≥ 3 [1]: 0 n (%) | Diarrhea (TRAE), any grade [1]: 19 (41.3) n (%) | Diarrhea (TRAE), grade ≥ 3 [1]: 0 n (%) | Discontinuations due to TRAEs, any grade [1]: 1 (2.2) ^d n (%) | Discontinuations due to TRAEs, grade ≥ 3 [1]: 1 (2.2) ^d n (%) | Fatigue (TRAE), any grade [1]: 8 (17.4) n (%) | Fatigue (TRAE), grade ≥ 3 [1]: 2 (4.3) n (%) | Nausea (TRAE), any grade [1]: 7 (15.2) n (%) | Nausea (TRAE), grade ≥ 3 [1]: 1 (2.2) n (%) | Patients with any TRAE, any grade [1]: 33 (71.7) n (%) | Patients with any TRAE, grade ≥ 3 [1]: 19 (41.3) n (%) | Serious TRAEs, any grade [1]: 3 (6.5) ^a,d n (%) | Serious TRAEs, grade ≥ 3 [1]: 3 (6.5) ^a,d n (%) | Thrombocytopenia (TRAE), any grade [1]: 20 (43.5) n (%) | Thrombocytopenia (TRAE), grade ≥ 3 [1]: 16 (34.8) n (%) | Vomiting (TRAE), any grade [1]: 5 (10.9) n (%) | Vomiting (TRAE), grade ≥ 3 [1]: 0 n (%) | DLT grade 4 thrombocytopenia (Schedule A, 2.0 mg): 1/13 | DLT grade 4 thrombocytopenia (Schedule A, 3.0 mg): 1/10 | DLT grade 4 thrombocytopenia (Schedule A, 4.5 mg): 2/13 | Serious TRAEs, incidence (Schedule A, 3 of 46 patients): 6.5% | Anemia (TRAE), any grade [2]: 2 (25.0) n (%) | Anemia (TRAE), grade ≥ 3 [2]: 2 (25.0) n (%) | Decreased appetite (TRAE), any grade [2]: 4 (50.0) n (%) | Decreased appetite (TRAE), grade ≥ 3 [2]: 0 n (%) | Diarrhea (TRAE), any grade [2]: 4 (50.0) n (%) | Diarrhea (TRAE), grade ≥ 3 [2]: 0 n (%) | Discontinuations due to TRAEs, any grade [2]: 0 n (%) | Discontinuations due to TRAEs, grade ≥ 3 [2]: 0 n (%) | Fatigue (TRAE), any grade [2]: 4 (50) n (%) | Fatigue (TRAE), grade ≥ 3 [2]: 1 (12.5) n (%) | Incidence of TRAEs [2]: 100% | Nausea (TRAE), any grade [2]: 1 (12.5) n (%) | Nausea (TRAE), grade ≥ 3 [2]: 1 (12.5) n (%) | Patients with any TRAE, any grade [2]: 8 (100.0) n (%) | Patients with any TRAE, grade ≥ 3 [2]: 4 (50.0) n (%) | Serious TRAEs, any grade [2]: 2 (25.0) ^b n (%) | Serious TRAEs, grade ≥ 3 [2]: 2 (25.0) ^b n (%) | Thrombocytopenia (TRAE), any grade [2]: 5 (62.5) n (%) | Thrombocytopenia (TRAE), grade ≥ 3 [2]: 2 (25.0) n (%) | Vomiting (TRAE), any grade [2]: 2 (25.0) n (%) | Vomiting (TRAE), grade ≥ 3 [2]: 1 (12.5) n (%) | DLT grade 4 thrombocytopenia (Schedule B, 3.0 mg): 2/4 | Serious TRAEs, incidence (Schedule B, 2 of 8 patients): 25.0% | Incidence of TRAEs (Schedule C (7 days on, 14 days off)): 72% and 72.4% | Anemia (TRAE), any grade [3]: 4 (13.8) n (%) | Anemia (TRAE), grade ≥ 3 [3]: 1 (3.4) n (%) | Decreased appetite (TRAE), any grade [3]: 3 (10.3) n (%) | Decreased appetite (TRAE), grade ≥ 3 [3]: 0 n (%) | Diarrhea (TRAE), any grade [3]: 13 (44.8) n (%) | Diarrhea (TRAE), grade ≥ 3 [3]: 0 n (%) | Discontinuations due to TRAEs, any grade [3]: 0 n (%) | Discontinuations due to TRAEs, grade ≥ 3 [3]: 0 n (%) | Fatigue (TRAE), any grade [3]: 4 (13.8) n (%) | Fatigue (TRAE), grade ≥ 3 [3]: 0 n (%) | Nausea (TRAE), any grade [3]: 6 (20.7) n (%) | Nausea (TRAE), grade ≥ 3 [3]: 0 n (%) | Patients with any TRAE, any grade [3]: 21 (72.4) n (%) | Patients with any TRAE, grade ≥ 3 [3]: 5 (17.2) n (%) | Serious TRAEs, any grade [3]: 0 n (%) | Serious TRAEs, grade ≥ 3 [3]: 0 n (%) | Thrombocytopenia (TRAE), any grade [3]: 7 (24.1) n (%) | Thrombocytopenia (TRAE), grade ≥ 3 [3]: 3 (10.3) n (%) | Vomiting (TRAE), any grade [3]: 3 (10.3) n (%) | Vomiting (TRAE), grade ≥ 3 [3]: 1 (3.4) n (%) | Serious TRAEs (Schedule C cohort (n = 29)): no serious TRAEs were reported | DLT grade 4 thrombocytopenia (Schedule C, 4.5 mg): 2/10 | Anemia (TRAE), any grade (Total, N = 83): 12 (14.5) n (%) | Anemia (TRAE), grade ≥ 3 (Total, N = 83): 5 (6.0) n (%) | Decreased appetite (TRAE), any grade (Total, N = 83): 12 (14.5) n (%) | Decreased appetite (TRAE), grade ≥ 3 (Total, N = 83): 0 n (%) | Diarrhea (TRAE), any grade (Total, N = 83): 36 (43.4) n (%) | Diarrhea (TRAE), grade ≥ 3 (Total, N = 83): 0 n (%) | Discontinuations due to TRAEs, any grade (Total, N = 83): 1 (1.2) ^d n (%) | Discontinuations due to TRAEs, grade ≥ 3 (Total, N = 83): 1 (1.2) ^d n (%) | Fatigue (TRAE), any grade (Total, N = 83): 16 (19.3) n (%) | Fatigue (TRAE), grade ≥ 3 (Total, N = 83): 3 (3.6) n (%) | Nausea (TRAE), any grade (Total, N = 83): 14 (16.9) n (%) | Nausea (TRAE), grade ≥ 3 (Total, N = 83): 2 (2.4) n (%) | Patients with any TRAE, any grade (Total, N = 83): 62 (74.7) n (%) | Patients with any TRAE, grade ≥ 3 (Total, N = 83): 28 (33.7) n (%) | Serious TRAEs, any grade (Total, N = 83): 5 (6.0) ^c,d n (%) | Serious TRAEs, grade ≥ 3 (Total, N = 83): 5 (6.0) ^c,d n (%) | Thrombocytopenia (TRAE), any grade (Total, N = 83): 32 (38.6) n (%) | Thrombocytopenia (TRAE), grade ≥ 3 (Total, N = 83): 21 (25.3) n (%) | Vomiting (TRAE), any grade (Total, N = 83): 10 (12.0) n (%) | Vomiting (TRAE), grade ≥ 3 (Total, N = 83): 2 (2.4) n (%) | Anemia as any-grade TRAE, incidence (all patients): 14.5% | Decreased appetite as any-grade TRAE, incidence (all patients): 14.5% | Fatigue as any-grade TRAE, incidence (all patients): 19.3% | Nausea as any-grade TRAE, incidence (all patients): 16.9% | Thrombocytopenia as grade ≥ 3 TRAE, incidence (all patients): 25.3% | Vomiting as any-grade TRAE, incidence (all patients): 12.0% | Thrombocytopenia as TRAE, incidence (all patients, any grade): 39% and 38.6% | Diarrhea as TRAE, incidence (all treatment schedule cohorts, 83 patients, any grade): 43% and 43.4% | Patients who experienced DLTs (among 83 patients, all in part 1): 9 | Patients with grade 3 nausea as a DLT (of 4 patients, Schedule B, 2.0-mg cohort): 1 | Serious TRAEs, incidence (overall study population, 5 of 83 patients): 6%
